How the values were obtained:
[1] = system: blue-stain fungi and molds; test: Activity against blue-stain fungi and molds on a stick test on vermiculite (paint film); design: key to Surface score of wooden sticks treated with paint formulation, C. cladosporioides / Surface score of wooden sticks treated with paint formulation, P. purpurogenum / Surface score of wooden sticks treated with paint formulation, P. violacea / Surface score of wooden sticks treated with paint formulation, R rubra (y) / Surface score of wooden sticks treated with paint formulation, S. chartarum / Surface score of wooden sticks treated with paint formulation, A. versicolor / Surface score of wooden sticks treated with paint formulation, A. pullulans: 0: No growth; Trace of growth of up to 1% coverage of the test inoculated area; 2: Growth covering between 1 and 10% of the inoculated test area; Growth covering between 10 and 30% of the inoculated test area; 4: Growth covering between 30 and 70% of the inoculated test area; 5: Growth covering more than 70t of the inoculated test area; settings: 12 weeks on vermiculite; for Surface score of wooden sticks treated with paint formulation, R rubra (y): R rubra (yeast)
Protocol: Beech sticks (73×18×2 mm) Fagus sylvatica were painted, allowed to dry, and sterilized by γ-radiation (1.2 mRad). […] The coated sticks prepared above were then dipped in a spore suspension of pure culture of each fungus. Seven sticks each were placed in autoclaved Petri dishes (200 mm in diameter, 30 mm in height) containing 300 ml of vermiculite and 120 ml of water, and incubated for 12 weeks. The surfaces of the sticks were then examined for the growth of fungus and were evaluated according to the following scoring system: 0: No growth 1: […] 2: […] 3: […] 4. […] 5. Growth covering more than 70t of the inoculated test area.

[2] = system: mixed spore suspension of blue-stain fungus and molds; test: Activity against blue-stain fungi and molds in a mold cabinet test (BS3900: Part G6); design: key: 0: No growth; Trace of growth of up to 1% coverage of the test inoculated area; 2: Growth covering between 1 and 10% of the inoculated test area; Growth covering between 10 and 30% of the inoculated test area; 4: Growth covering between 30 and 70% of the inoculated test area; 5: Growth covering more than 70t of the inoculated test area
Protocol: Using the methods described in BS3900: Part G6: 1989, British Standard Methods of test for paints, “Assessment of resistance to fungal growth”, representative compounds of this invention were tested for activity against blue-stain fungus and molds in a mold cabinet test. In brief, sticks of Scots pine (Pinus sylvestris) measuring 75×100×10 mm, were painted, allowed to dry, and sterilized by […] (1.2 mRad). […] The sticks were then with each solution. The inoculation consisted of dipping the sticks in a mixed spore suspension, then placing them in a mold chamber and incubating them for 12 weeks. The surfaces were evaluated according the following score system: 0: No growth 1: […] 2: […] 3: […] 4. […] 5. Growth covering more than 70% of the inoculated test area.

[3] = system: mixed spore suspension: Aureobasidium pullulans, Aspergillus amstelodami, Ceratocystis pilifera, Cladosporium sp., Penicillium sp., Sclerophomas entoxylina …; test: Control of molds and sapstain fungi in mini-board test; design: key to Surface score of treated mini-boards, 3 week incubation, 1500 ppm / Surface score of treated mini-boards, 3 week incubation, 2500 ppm: 0: Free of fungal growth; 1: Traces of fungal growth; 2: Little fungal growth; 3: Moderate fungal growth; 4: Vigorous to maximum growth (all surfaces covered with fungal growth)
Excerpt: Representative compounds of this invention to be tested, were suspended in an aqueous solution containing 7.5% GENAPOL X 080™ (Hoechst-Celanese Corporation), and 20% propylene glycol monomethyl ether, to prepare the test solutions. […]
Deep frozen boards (300×50×10 mm) of freshly felled sapwood of Pinus sylvestrus (mini-boards) were thawed at room temperature. One half of each mini-board was immersed in a test solution for 20 seconds. The mini-boards were then sprayed with mixed spore suspension containing the following fungi:
Sclerophomas entoxylina, and
and stored in incubation boxes at 25° C. and at 100% relative humidity, for three weeks. For each compound tested, each concentration of test solution was applied to five different mini-boards.
The efficacy of the test compounds was determined by comparing the fungal growth on both the treated and untreated parts of the mini-boards.
The degree of infection was scored according to the following scale:
1=Traces of fungal growth
4=Vigorous to maximum growth (all surfaces covered with fungal growth)

| SMILES | Surface score of wooden sticks treated with paint formulation, A. pullulans ([1]; 0.15% a.i. in paint) | Surface score of wooden sticks treated with paint formulation, A. pullulans ([1]; 0.3% a.i. in paint) | Surface score of wooden sticks treated with paint formulation, A. versicolor ([1]; 0.15% a.i. in paint) | Surface score of wooden sticks treated with paint formulation, A. versicolor ([1]; 0.3% a.i. in paint) | Surface score of wooden sticks treated with paint formulation, C. cladosporioides ([1]; 0.15% a.i. in paint) | Surface score of wooden sticks treated with paint formulation, C. cladosporioides ([1]; 0.3% a.i. in paint) | Surface score of wooden sticks treated with paint formulation, P. purpurogenum ([1]; 0.15% a.i. in paint) | Surface score of wooden sticks treated with paint formulation, P. purpurogenum ([1]; 0.3% a.i. in paint) | Surface score of wooden sticks treated with paint formulation, P. violacea ([1]; 0.15% a.i. in paint) | Surface score of wooden sticks treated with paint formulation, P. violacea ([1]; 0.3% a.i. in paint) | Surface score of wooden sticks treated with paint formulation, R rubra (y) ([1]; 0.15% a.i. in paint) | Surface score of wooden sticks treated with paint formulation, R rubra (y) ([1]; 0.3% a.i. in paint) | Surface score of wooden sticks treated with paint formulation, S. chartarum ([1]; 0.15% a.i. in paint) | Surface score of wooden sticks treated with paint formulation, S. chartarum ([1]; 0.3% a.i. in paint) | Surface score of wooden sticks treated with paint formulation, U. atrum ([1]; 0.15% a.i. in paint) | Surface score of wooden sticks treated with paint formulation, U. atrum ([1]; 0.3% a.i. in paint) | Surface score in a paint formulation in a mold cabinet test, 6 weeks ([2]; 0.15% in water-based paint) | Surface score in a paint formulation in a mold cabinet test, 12 weeks ([2]; 0.15% in water-based paint) | Surface score in a paint formulation in a mold cabinet test, 6 weeks ([2]; 0.3% in water-based paint) | Surface score in a paint formulation in a mold cabinet test, 12 weeks ([2]; 0.3% in water-based paint) | further results |
| --- | --- | --- | --- | --- | --- | --- | --- | --- | --- | --- | --- | --- | --- | --- | --- | --- | --- | --- | --- | --- | --- |
| Cc1ccsc1C1=NOCCS1(=O)=O [Compound 37] | 3 (Growth covering between 10 and 30% of the inoculated test area) | 2 (Growth covering between 1 and 10% of the inoculated test area) | 2 (Growth covering between 1 and 10% of the inoculated test area) | 1 (Trace of growth of up to 1% coverage of the test inoculated area) | 3 (Growth covering between 10 and 30% of the inoculated test area) | 0 | 3 (Growth covering between 10 and 30% of the inoculated test area) | 1 (Trace of growth of up to 1% coverage of the test inoculated area) | 5 (Growth covering more than 70t of the inoculated test area) | 4 (Growth covering between 30 and 70% of the inoculated test area) | 4 (Growth covering between 30 and 70% of the inoculated test area) | 3 (Growth covering between 10 and 30% of the inoculated test area) | 1 (Trace of growth of up to 1% coverage of the test inoculated area) | 0 | 4 (Growth covering between 30 and 70% of the inoculated test area) | 3 (Growth covering between 10 and 30% of the inoculated test area) | 4.0 | 5.0 | 0 | 0 | Surface score of treated mini-boards, 3 week incubation, 1500 ppm [3]: 0; Surface score of treated mini-boards, 6 week incubation, 1500 ppm [3]: 0.8; Surface score of treated mini-boards, 3 week incubation, 2500 ppm [3]: 0; Surface score of treated mini-boards, 6 week incubation, 2500 ppm [3]: 0.4 |
| O=S1(=O)CCON=C1c1ccc(Br)s1 [Compound 38] | 2 (Growth covering between 1 and 10% of the inoculated test area) | 0 | 1 (Trace of growth of up to 1% coverage of the test inoculated area) | 0 | 2 (Growth covering between 1 and 10% of the inoculated test area) | 0 | 3 (Growth covering between 10 and 30% of the inoculated test area) | 3 (Growth covering between 10 and 30% of the inoculated test area) | 4 (Growth covering between 30 and 70% of the inoculated test area) | 4 (Growth covering between 30 and 70% of the inoculated test area) | 3 (Growth covering between 10 and 30% of the inoculated test area) | 0 | 5 (Growth covering more than 70t of the inoculated test area) | 2 (Growth covering between 1 and 10% of the inoculated test area) | 4 (Growth covering between 30 and 70% of the inoculated test area) | 3 (Growth covering between 10 and 30% of the inoculated test area) | 2.5 | 4.5 | 2.5 | 4.0 | Surface score of treated mini-boards, 3 week incubation, 1500 ppm [3]: 0.6; Surface score of treated mini-boards, 6 week incubation, 1500 ppm [3]: 2.0; Surface score of treated mini-boards, 3 week incubation, 2500 ppm [3]: 0.4; Surface score of treated mini-boards, 6 week incubation, 2500 ppm [3]: 2.8 |
| [O-][S+]1CCON=C1c1cc(Br)cs1 (stereo not drawn) [Compound 41] | 0 | 0 | 0 | 0 | 0 | 0 | 2 (Growth covering between 1 and 10% of the inoculated test area) | 1 (Trace of growth of up to 1% coverage of the test inoculated area) | 4 (Growth covering between 30 and 70% of the inoculated test area) | 3 (Growth covering between 10 and 30% of the inoculated test area) | 3 (Growth covering between 10 and 30% of the inoculated test area) | 0 | 4 (Growth covering between 30 and 70% of the inoculated test area) | 0 | 3 (Growth covering between 10 and 30% of the inoculated test area) | 1 (Trace of growth of up to 1% coverage of the test inoculated area) | 0 | 2.0 | 0.5 | 3.0 | Surface score of treated mini-boards, 3 week incubation, 1500 ppm [3]: 0.6; Surface score of treated mini-boards, 6 week incubation, 1500 ppm [3]: 2.4; Surface score of treated mini-boards, 3 week incubation, 2500 ppm [3]: 0.2; Surface score of treated mini-boards, 6 week incubation, 2500 ppm [3]: 1.6 |

Reference: patent publication US6372297B1, “Wood preservative oxathiazines” (Uniroyal Chemical Company, Inc., priority 1993, dated 2002)
